Where two headings read alike, the source gives them in different places.

This assay concerns α7 integrin (LacZ reporter in α7LacZ+/− myoblasts). Put plainly: qHTS of the LOPAC library and MLSMR (online screen, α7LacZ+/− myoblasts). Particulars: for activation at 0.307 µM / activation at 1.53 µM / activation at 7.66 µM / activation at 38.3 µM / Emax / EC50: Mus musculus, Myoblast; for activation at 0.307 µM: read-out: Activity at 0.307 uM [%] **; for activation at 1.53 µM: read-out: Activity at 1.530 uM [%] **; for activation at 7.66 µM: read-out: Activity at 7.660 uM [%] **; for activation at 38.3 µM: read-out: Activity at 38.30uM [%] **; for EC50: read-out: Fit LogAC50 (converted). In general terms: Quantitative high-throughput screening tests each substance at several concentrations.

The mark [1] stands for this setting: 48 h, read-out: Fit Infinite Activity [%].

On to `O=C(O)CCn1cc(/C=C2/NC(=S)N(c3ccccc3)C2=O)c(-c2ccccc2)n1` [Compound 65], for which the Score is given as 45 and the EC50 is 20 µM. Moreover, where the note is “48 h”, the activation at 0.307 µM turned out to be 8.21%, the activation at 1.53 µM was found to be 2.59%, the activation at 7.66 µM came to 27.2% and the activation at 38.3 µM was 464%. Further, the Emax under setting [1] was 501%. The Emax (read-out: Max Response [%]) was found to be 464%.
For the compound `COc1ccc2oc(C[S+]([O-])c3ccccc3)c(C(=O)O)c2c1` (centres unmarked) [Compound 109], the EC50 was 12.6 µM. Moreover, under “48 h”, the activation at 0.307 µM came to 5.2%, the activation at 1.53 µM is 10.1%, the activation at 7.66 µM worked out at 20.9% and the activation at 38.3 µM was 174%. Besides, the Emax under setting [1] came to 174%. Further, the Emax (read-out: Max Response [%]) worked out at 174%.
Consider `COc1ccc(CCNC(=O)Cn2nnc(C(=O)Nc3ccc(Br)cc3)c2N)cc1OC` [Compound 148], for which, under “48 h”, the activation at 0.307 µM was -30%, the activation at 1.53 µM is -26.8%, the activation at 7.66 µM came to 12.5% and the activation at 38.3 µM amounted to 102%. In addition, under setting [1], the Emax turned out to be 110%. Further, the Emax (read-out: Max Response [%]) came to 102%.
Regarding `COc1ccc(N(CC(=O)NCCC(C)C)C(=O)c2snc(C(=O)NC3CCCCC3)c2N)c(OC)c1` [Compound 98], the EC50 was 10 µM. Also, for the setting “48 h”, the activation at 0.307 µM is -0.0399%, the activation at 1.53 µM was determined as 0.105%, the activation at 7.66 µM was determined as 28.9% and the activation at 38.3 µM was 125%. For the same compound, under setting [1], the Emax is 126%. Besides, the Emax (read-out: Max Response [%]) was 125%.
As to `COc1cccc(N2C(=O)CC(N3CCc4ccccc4C3)C2=O)c1` (centres unmarked) [Compound 176], the EC50 is 10 µM. In addition, where the note is “48 h”, the activation at 0.307 µM was -22.1%, the activation at 1.53 µM was -16.9%, the activation at 7.66 µM worked out at 5.26% and the activation at 38.3 µM worked out at 95.9%. The Emax under setting [1] amounted to 96.1%. The Emax (read-out: Max Response [%]) amounted to 95.9%.
With `O=C(CN1CCOCC1)NCc1cc([N+](=O)[O-])ccc1O` [Compound 166], for the setting “48 h”, the activation at 0.307 µM amounted to 10.3%, the activation at 1.53 µM stood at 15.6%, the activation at 7.66 µM was found to be 41.7% and the activation at 38.3 µM worked out at 87.7%. Further, the Emax under setting [1] was found to be 104%. Where the note is “read-out: Max Response [%]”, the Emax was found to be 87.7%.
Turning to `Cc1cccc(OCc2nc(C#N)c(N3CCCC3)o2)c1` [Compound 2], the EC50 is 3.55 µM. Also, where the note is “48 h”, the activation at 0.307 µM turned out to be 9.52%, the activation at 1.53 µM is 57%, the activation at 7.66 µM worked out at 175% and the activation at 38.3 µM came to 223%. Also, under setting [1], the Emax stood at 231%.
As for `O=Cc1ccc(C(=O)OCC(=O)N2CCCC2)cc1` [Compound 35], the EC50 is 2.51 µM. Under “48 h”, the activation at 0.307 µM is 0%, the activation at 1.53 µM was found to be 12%, the activation at 7.66 µM is 71.5% and the activation at 38.3 µM amounted to 71.8%. The Emax under setting [1] was determined as 72.6%.
On to `O=S(=O)(NCC(c1ccco1)N1CCOCC1)c1ccc(Cl)cc1` (centres unmarked) [Compound 212], for which, under “48 h”, the activation at 0.307 µM was 11.1%, the activation at 1.53 µM stood at 7.37%, the activation at 7.66 µM is 15.9% and the activation at 38.3 µM is 128%. Further, the Emax under setting [1] was found to be 129%. Moreover, the Emax (read-out: Max Response [%]) turned out to be 128%.
On to `CCOC(=O)c1sc(=N)n(-c2ccc(OC)cc2)c1C` [Compound 26], for which the EC50 was 2 µM. Also, under “48 h”, the activation at 0.307 µM was -25.4%, the activation at 1.53 µM stood at 4.59%, the activation at 7.66 µM worked out at 41.9% and the activation at 38.3 µM was found to be 56.1%. In addition, the Emax under setting [1] amounted to 59.6%.
`Cc1cc(NC(=O)CCC(=O)N(Cc2cccnc2)C(C(=O)NC(C)(C)C)c2ccccc2Cl)no1` (centres unmarked) [Compound 29]: the EC50 was 3.98 µM. For the same compound, under “48 h”, the activation at 0.307 µM is -23.8%, the activation at 1.53 µM was -13.5%, the activation at 7.66 µM was 36% and the activation at 38.3 µM stood at 54.9%. Also, the Emax under setting [1] was found to be 55.7%.
For the compound `COc1ccc(NC(=O)c2cccc(N3C(=O)c4ccc(C(=O)Nc5ccc(OC)c(O)c5)cc4C3=O)c2)cc1O` [Compound 13], the EC50 was 4.47 µM. For the setting “48 h”, the activation at 0.307 µM is -24.8%, the activation at 1.53 µM was -27.4%, the activation at 7.66 µM stood at 80.7% and the activation at 38.3 µM was 95.6%. For the same compound, the Emax under setting [1] amounted to 94.7%.
For the compound `Oc1c(Br)cc(Br)cc1CNc1cccc2cccnc12` [Compound 110], the EC50 was 12.6 µM. Under “48 h”, the activation at 0.307 µM is -18.9%, the activation at 1.53 µM is -17.9%, the activation at 7.66 µM stood at 0% and the activation at 38.3 µM stood at 161%. Also, the Emax under setting [1] was 163%. The Emax (read-out: Max Response [%]) stood at 161%. Besides, for the setting “Table 8 Compound data”, the Score was 43.
For the compound `CC(=O)c1cccc(NC(=O)C(=O)Nc2cccc3ccccc23)c1` [Compound 197], where the note is “48 h”, the activation at 0.307 µM came out at 5.25%, the activation at 1.53 µM was found to be 15.7%, the activation at 7.66 µM is 40.8% and the activation at 38.3 µM was determined as 66.9%. Moreover, the Emax under setting [1] was 84.7%. Also, the Emax (read-out: Max Response [%]) was 66.9%.
`Cc1nn(C(C)(C)C)c(C)c1/C=N/OC(=O)Nc1ccc(Cl)c(Cl)c1` [Compound 32]: the “Curve Description” value is “Complete” and the EC50 is 2.82 µM. For the same compound, where the note is “48 h”, the activation at 0.307 µM was -28.1%, the activation at 1.53 µM is -9.46%, the activation at 7.66 µM amounted to 51% and the activation at 38.3 µM is 59.8%. Besides, under setting [1], the Emax amounted to 60.2%.
`CCc1ccc(Sc2cc(C(=O)NCCN3CCOCC3)c3ccccc3n2)cc1` [Compound 214]: under “48 h”, the activation at 0.307 µM came out at 13.2%, the activation at 1.53 µM was 16.1%, the activation at 7.66 µM is 43.9% and the activation at 38.3 µM stood at 101%. For the same compound, the Emax under setting [1] was 108%. Also, the Emax (read-out: Max Response [%]) amounted to 101%.
As to `O=C(Cn1nc(-c2ccc(Cl)cc2)ccc1=O)N1CCC2(CC1)OCCO2` [Compound 221], under “48 h”, the activation at 0.307 µM was determined as 6.38%, the activation at 1.53 µM was found to be 7.87%, the activation at 7.66 µM was determined as 16.8% and the activation at 38.3 µM was 66.1%. Further, the Emax under setting [1] came to 66.5%. Also, for the setting “read-out: Max Response [%]”, the Emax stood at 66.1%.
As to `O=S(=O)(c1ccccc1)N1CCCC(c2nc(O)c3nnn(Cc4cccc(Cl)c4)c3n2)C1` (centres unmarked) [Compound 161], where the note is “48 h”, the activation at 0.307 µM was -37%, the activation at 1.53 µM is -17.7%, the activation at 7.66 µM is 22.4% and the activation at 38.3 µM amounted to 48.1%. Further, the Emax under setting [1] is 55%. The Emax (read-out: Max Response [%]) was determined as 48.1%.
On to `C/C(=N\NC(=O)c1cc(C)oc1C)c1ccc2ccccc2c1` [Compound 149], for which, under “48 h”, the activation at 0.307 µM is -0.126%, the activation at 1.53 µM turned out to be 8.59%, the activation at 7.66 µM came to 37% and the activation at 38.3 µM stood at 68%. For the same compound, under setting [1], the Emax turned out to be 82.4%. The Emax (read-out: Max Response [%]) is 68%.
For `CC(C)CC1NC(=O)N(CC(=O)N2c3ccccc3NC(=O)C2(C)C)C1=O` (centres unmarked) [Compound 21], the EC50 is 5.62 µM. Further, for the setting “48 h”, the activation at 0.307 µM is 2.86%, the activation at 1.53 µM came to 0%, the activation at 7.66 µM stood at 75.6% and the activation at 38.3 µM came out at 93.3%. Besides, the Emax under setting [1] was 93.5%.

The values above are taken from patent US9980943B2, “Methods of treating muscular dystrophy” (BOARD OF REGENTS OF THE NEVADA SYSTEM OF HIGHER EDUCATION, …, priority 2013, dated 2018).
